# Results taken from patent US11957684B2, “Treatment of heavy menstrual bleeding associated with uterine fibroids” (Sumitomo Pharma Switzerland GmbH, priority 2016, dated 2024).
# Where “and” joins values, the source holds several entries; their conditions need not be identical. Identical values can stand only once. Like-named read-outs stand apart in the source and are kept apart here.
# Test system: endometriosis-associated pain
# Format: in vivo, human
# Description: Subjects assessed and recorded their own quality of life (QOL) using the EHP-30 once a month during the study visit. As used in the examples, the VAS score was evaluated using a 100 mm scale. For pain intensity, the scale was anchored by “no pain” (score of 0) and “pain as bad as you can imagine” (score of 100). […] The above items were evaluated using a patient diary that was distributed by the sponsor. Subjects filled out the patient diary every day during the treatment period or until early termination. If taking prohibited analgesics, subjects recorded this fact in the patient diary along with the accompanying pain symptoms before use of analgesics. As used in the examples, pain during menstruation and pelvic pain unrelated to menstruation were evaluated using scores on the M-B&B and B&B. The M-B&B scores were recorded by subjects on the patient diary supplied by the sponsor. Subjects filled out the patient diary every day during the treatment period or until early termination. If taking prohibited analgesics, subjects recorded this fact in the patient diary along with the accompanying pain symptoms before use of analgesics. The investigator or subinvestigator assessed each patient's pain through interviews and filled out a B&B once a month. The items that were assessed are shown below. The M-B&B score included: dysmenorrhea (severe, moderate, mild, no pain, or no menstruation); pelvic pain (severe, moderate, mild, or no pain); deep dyspareunia (severe, moderate, mild, no pain, or no intercourse). The B&B score included: dysmenorrhea (severe, moderate, mild, none, or not applicable); dyspareunia (severe, moderate, mild, none, or not applicable); pelvic pain (severe, moderate, mild, or none); pelvic tenderness (severe, moderate, mild, or none); and induration (severe, moderate, mild, or none). As used in the examples, the EHP-30 score was obtained by subjects assessing and recording their own QOL using the EHP-30 questionnaire.
# [1] = 40 mg, end of 84 consecutive days
structure (smiles),measurement,setting,value
"CONC(=O)Nc1ccc(-c2sc3c(c2CN(C)C)c(=O)n(-c2ccc(OC)nn2)c(=O)n3Cc2c(F)cccc2F)cc1 [Compound 1, N-(4-(1-(2,6-difluorobenzyl)-5-((dimethylamino)methyl)-3-(6-methoxy-3-pyridazinyl)-2,4-dioxo-1,2,3,4-tetrahydrothieno[2,3-d]pyrimidin-6-yl)phenyl)-N′-methoxyurea]","change from baseline in maximum VAS, pelvic pain","20 mg, end of treatment",−33.3±30.14 mm
same,"change from baseline in mean M-B&B score, deep dyspareunia","20 mg, end of treatment",−0.210±0.4936
same,"change from baseline in mean M-B&B score, dysmenorrhea","20 mg, end of treatment",−0.795±0.6490
same,"change from baseline in mean VAS, dysmenorrhea","20 mg, end of treatment",−19.825±20.4332 mm
same,"change from baseline in mean VAS, dyspareunia","20 mg, end of treatment",−3.553±11.5544 mm
same,"change from baseline in mean VAS, pelvic pain","20 mg, end of treatment",−9.032 mm and −9.032±11.8432 mm
same,change from baseline in proportion of days with usage of pain killer,"20 mg, end of treatment",−7.36±14.585%
same,"change in proportion of days without pain (M-B&B), deep dyspareunia","20 mg, end of treatment",18.04±47.892%
same,"change in proportion of days without pain (M-B&B), dysmenorrhea","20 mg, end of treatment",50.92±41.641%
same,"change in proportion of days without pain (M-B&B), pelvic pain","20 mg, end of treatment",17.75±30.339%
same,"change in proportion of days without pain (VAS), dysmenorrhea","20 mg, end of treatment",50.91±42.602%
same,"change in proportion of days without pain (VAS), dyspareunia","20 mg, end of treatment",15.14±47.793%
same,"change in proportion of days without pain (VAS), pelvic pain","20 mg, end of treatment",21.50±28.859%
same,"mean VAS score, dysmenorrhea","20 mg, end of treatment",7.878±14.2406 mm
same,"mean VAS score, dyspareunia","20 mg, end of treatment",6.363±13.1847 mm
same,"mean VAS score, pelvic pain","20 mg, end of treatment",6.557±11.2902 mm
same,subjects who achieved amenorrhea,"20 mg, end of treatment",54.0%
same,"subjects without pain in M-B&B score, dysmenorrhea","20 mg, end of treatment",61.0%
same,"subjects without pain in M-B&B score, dyspareunia","20 mg, end of treatment",52.5%
same,"subjects without pain in M-B&B score, pelvic pain","20 mg, end of treatment",34.0%
same,"subjects without pain in VAS score, dysmenorrhea","20 mg, end of treatment",59.0%
same,"subjects without pain in VAS score, dyspareunia","20 mg, end of treatment",47.5%
same,"subjects without pain in VAS score, pelvic pain","20 mg, end of treatment",20%
same,"change from baseline in pelvic pain, dysmenorrhea, and dyspareunia in mean VAS","40 mg, 84 consecutive days",−10.418±11.0171 mm
same,"change from baseline in mean VAS, dysmenorrhea","40 mg, Day 1-28",−10.979±14.8545 mm
same,"change from baseline in mean VAS, dyspareunia","40 mg, Day 1-28",2.995±9.7916 mm
same,"change from baseline in mean VAS, pelvic pain","40 mg, Day 1-28",−3.761±7.8831 mm
same,"mean VAS score, dysmenorrhea","40 mg, Day 1-28",19.452±19.1065 mm
same,"mean VAS score, dyspareunia","40 mg, Day 1-28",9.522±13.6408 mm
same,"mean VAS score, pelvic pain","40 mg, Day 1-28",11.498±13.2341 mm
same,"change from baseline in mean VAS, dysmenorrhea","40 mg, Day 57-84",−30.094±17.2623 mm
same,"change from baseline in mean VAS, dyspareunia","40 mg, Day 57-84",−1.860±10.3161 mm
same,"change from baseline in mean VAS, pelvic pain","40 mg, Day 57-84",−10.537±11.0516 mm
same,"mean VAS score, dysmenorrhea","40 mg, Day 57-84",0.569±2.5367 mm
same,"mean VAS score, dyspareunia","40 mg, Day 57-84",4.126±7.9652 mm
same,"mean VAS score, pelvic pain","40 mg, Day 57-84",4.785±8.9162 mm
same,"change from baseline in mean VAS, dysmenorrhea","40 mg, Day 141-168",−31.210±17.7668 mm
same,"change from baseline in mean VAS, dyspareunia","40 mg, Day 141-168",−0.830±13.6774 mm
same,"mean VAS score, dysmenorrhea","40 mg, Day 141-168",0.430±2.3141 mm
same,"mean VAS score, dyspareunia","40 mg, Day 141-168",3.531±9.6053 mm
same,"mean VAS score, pelvic pain","40 mg, Day 141-168",2.979±6.1704 mm
same,"change from baseline in EHP-30, Self-image","40 mg, Week 24",−9.68±17.744
same,"change from baseline in EHP-30, control & powerlessness","40 mg, Week 24",−20.88±21.676
same,"change from baseline in EHP-30, emotional well-being","40 mg, Week 24",−13.26±16.316
same,"change from baseline in EHP-30, pain","40 mg, Week 24",−25.94±19.902
same,"change from baseline in EHP-30, social support","40 mg, Week 24",−10.28±17.109
same,"change from baseline in mean B&B score, dysmenorrhea","40 mg, Week 24",−2.0±0.61
same,"change from baseline in mean B&B score, dyspareunia","40 mg, Week 24",−0.1±0.43
same,"change from baseline in mean B&B score, pelvic pain","40 mg, Week 24",−1.0±0.86
same,"change from baseline in mean B&B score, pelvic tenderness","40 mg, Week 24",−1.0±0.92
same,"subjects without pain in B&B score, dysmenorrhea","40 mg, Week 24",94.3%
same,"subjects without pain in B&B score, pelvic pain","40 mg, Week 24",58.6%
same,change from baseline in proportion of days without dysmenorrhea (M-B&B),"40 mg, end of 28 consecutive days",73.98±29.567%
same,change from baseline in mean EHP-30 score,[1],−25.94±19.902
same,"change from baseline in mean M-B&B score, deep dyspareunia",[1],−0.097±0.4325
same,"change from baseline in mean M-B&B score, dysmenorrhea",[1],−1.144±0.5014
same,"change from baseline in mean M-B&B score, pelvic pain",[1],−0.400±0.4491
same,change from baseline in proportion of days without deep dyspareunia (M-B&B),[1],8.15±43.20%
same,change from baseline in proportion of days without dysmenorrhea (VAS),[1],78.45±29.838%
same,change from baseline in proportion of days without pelvic pain (M-B&B),[1],31.00±36.746%
same,change from baseline in proportion of days without pelvic pain (VAS),[1],36.59±34.849%
same,subjects without dysmenorrhea (B&B),[1],94.3%
same,subjects without dyspareunia (M-B&B),[1],51.3%
same,"change from baseline in maximum M-B&B score, dysmenorrhea","40 mg, end of treatment",−2.0±0.76
same,"change from baseline in maximum M-B&B score, dyspareunia","40 mg, end of treatment",−0.1±0.54
same,"change from baseline in maximum M-B&B score, pelvic pain","40 mg, end of treatment",−1.0±0.89
same,"change from baseline in maximum VAS, dysmenorrhea","40 mg, end of treatment",−57.1±25.00 mm
same,"change from baseline in maximum VAS, dyspareunia","40 mg, end of treatment",−2.5±17.17 mm
same,"change from baseline in maximum VAS, pelvic pain","40 mg, end of treatment",−49.7±26.47 mm
same,"change from baseline in mean M-B&B score, deep dyspareunia","40 mg, end of treatment",−0.097±0.4325
same,"change from baseline in mean M-B&B score, dysmenorrhea","40 mg, end of treatment",−1.144±0.5014
same,"change from baseline in mean M-B&B score, pelvic pain","40 mg, end of treatment",−0.400±0.4491
same,"change from baseline in mean VAS, dysmenorrhea","40 mg, end of treatment",−29.513±17.5379 mm
same,"change from baseline in mean VAS, dyspareunia","40 mg, end of treatment",−0.925±12.0373 mm
same,"change from baseline in mean VAS, pelvic pain","40 mg, end of treatment",−11.924 mm and −11.924±11.2609 mm
same,change from baseline in mean score of amount of bleeding (0 to 5),"40 mg, end of treatment",−2.207±0.8149
same,change from baseline in proportion of days with usage of pain killer,"40 mg, end of treatment",−9.95±14.214%
same,"change in proportion of days without pain (M-B&B), deep dyspareunia","40 mg, end of treatment",8.15±43.207%
same,"change in proportion of days without pain (M-B&B), dysmenorrhea","40 mg, end of treatment",73.98±29.567%
same,"change in proportion of days without pain (M-B&B), pelvic pain","40 mg, end of treatment",31.00±36.746%
same,"change in proportion of days without pain (VAS), dysmenorrhea","40 mg, end of treatment",78.45±29.838%
same,"change in proportion of days without pain (VAS), dyspareunia","40 mg, end of treatment",4.50±40.796%
same,"change in proportion of days without pain (VAS), pelvic pain","40 mg, end of treatment",36.59±34.849%
same,"mean VAS score, dysmenorrhea","40 mg, end of treatment",0.918±4.3438 mm
same,"mean VAS score, dyspareunia","40 mg, end of treatment",4.842±9.1145 mm
same,"mean VAS score, pelvic pain","40 mg, end of treatment",3.335±6.4059 mm
same,subjects who achieved amenorrhea,"40 mg, end of treatment",91.3%
same,"subjects without pain in M-B&B score, dysmenorrhea","40 mg, end of treatment",93.2%
same,"subjects without pain in M-B&B score, dyspareunia","40 mg, end of treatment",51.3%
same,"subjects without pain in M-B&B score, pelvic pain","40 mg, end of treatment",52.4%
same,"subjects without pain in VAS score, dysmenorrhea","40 mg, end of treatment",93.2%
same,"subjects without pain in VAS score, dyspareunia","40 mg, end of treatment",48.7%
same,"subjects without pain in VAS score, pelvic pain","40 mg, end of treatment",49.5% and 50%
